Assay [1] addresses SREBP-2 (Homo sapiens (Human), UniProt Q12772). Description: In vitro assay SREBP-2: PathHunter U2OS SREBP-2 Nuclear Translocation Cell Line, U18666A-stimulated. It is filed as cell-based. The settings on record: PathHunter U2OS SREBP-2 nuclear translocation cells, U18666A 10 μM, overnight (16 hours).
The target of assay [2] is LXRβ (Homo sapiens (Human), UniProt P55055). Description: In vitro assay LXRβ: PathHunter NHR CHO cells, LXRβ / Steroid Receptor Co-activator Peptide enzyme fragment complementation. Format: cell-based. The settings on record: PathHunter NHR CHO cells, full-length human LXRβ and SRCP, chemiluminescent signal; read-out: LXRβ PPI. A digest of the protocol:
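Co-activator recruitment measured by chemiluminescence after signal generation. The CHO line carries full-length human LXRβ tagged with ProLink and an SRCP–enzyme acceptor fusion in the nucleus; cells sat overnight at 37° C before testing, in charcoal-dextran filtered serum medium with 1% final vehicle.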

LXRβ, sequence (P55055 whole entry, the tested form may be a part): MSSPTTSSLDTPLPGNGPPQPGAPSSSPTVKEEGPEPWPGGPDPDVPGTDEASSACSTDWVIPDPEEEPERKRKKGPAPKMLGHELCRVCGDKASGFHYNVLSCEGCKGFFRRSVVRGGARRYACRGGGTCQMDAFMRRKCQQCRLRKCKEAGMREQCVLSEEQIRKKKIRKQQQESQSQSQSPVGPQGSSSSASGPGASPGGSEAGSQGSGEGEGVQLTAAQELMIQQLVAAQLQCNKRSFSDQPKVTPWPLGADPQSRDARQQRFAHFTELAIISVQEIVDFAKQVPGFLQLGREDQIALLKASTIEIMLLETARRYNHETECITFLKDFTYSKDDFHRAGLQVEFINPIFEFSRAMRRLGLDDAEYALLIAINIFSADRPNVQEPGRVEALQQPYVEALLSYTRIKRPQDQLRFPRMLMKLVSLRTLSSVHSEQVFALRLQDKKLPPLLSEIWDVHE

In turn, `C[C@H](CCC(=O)N1CCN(c2ncccc2OC2CC2)CC1)[C@H]1CC[C@H]2[C@@H]3CC=C4C[C@@H](O)CC[C@]4(C)[C@H]3CC[C@]12C` [Example 621, (R)-1-(4-(3-cyclopropoxypyridin-2-yl)piperazin-1-yl)-4-((3S,8S,9S,10R,13R,14S,17R)-3-hydroxy-10,13-dimethyl-2,3,4,7,8,9,10,11,12,13,14,15,16,17-tetradecahydro-1H-cyclopenta[a]phenanthren-17-yl)pentan-1-one] returned an IC50 in assay [1] below 250 nM. In addition, the EC50 in assay [2] was above 10000 nM.
The matching figures for `COc1cccnc1C1CCN(C(=O)CC[C@@H](C)[C@H]2CC[C@H]3[C@@H]4CC=C5C[C@@H](O)CC[C@]5(C)[C@H]4CC[C@]23C)CC1` [Example 622, (R)-4-((3S,8S,9S,10R,13R,14S,17R)-3-hydroxy-10,13-dimethyl-2,3,4,7,8,9,10,11,12,13,14,15,16,17-tetradecahydro-1H-cyclopenta[a]phenanthren-17-yl)-1-(4-(3-methoxypyridin-2-yl)piperidin-1-yl)pentan-1-one]: below 250 nM and above 10000 nM.
`COc1ccccc1C1CCN(C(=O)CC[C@@H](C)[C@H]2CC[C@H]3[C@@H]4CC=C5C[C@@H](O)CC[C@]5(C)[C@H]4CC[C@]23C)CC1` [Example 623, (R)-4-((3S,8S,9S,10R,13R,14S,17R)-3-hydroxy-10,13-dimethyl-2,3,4,7,8,9,10,11,12,13,14,15,16,17-tetradecahydro-1H-cyclopenta[a]phenanthren-17-yl)-1-(4-(2-methoxyphenyl)piperidin-1-yl)pentan-1-one] came in with an IC50 in assay [1] below 250 nM. The EC50 in assay [2] fell in the range of 1000 to 10000 nM.
Compound `COc1ccccc1N1CCN(C(=O)CC[C@@H](C)[C@H]2CC[C@H]3[C@@H]4CC=C5C[C@@H](O)CC[C@]5(C)[C@H]4CC[C@]23C)CC1` [Example 624, (R)-4-((3S,8S,9S,10R,13R,14S,17R)-3-hydroxy-10,13-dimethyl-2,3,4,7,8,9,10,11,12,13,14,15,16,17-tetradecahydro-1H-cyclopenta[a]phenanthren-17-yl)-1-(4-(2-methoxyphenyl)piperazin-1-yl)pentan-1-one] yielded an IC50 in assay [1] below 250 nM. The EC50 in assay [2] is above 10000 nM.
On to `COc1cccnc1NC(=O)CC[C@@H](C)[C@H]1CC[C@H]2[C@@H]3CC=C4C[C@@H](O)CC[C@]4(C)[C@H]3CC[C@]12C` [Example 625, (R)-4-((3S,8S,9S,10R,13R,14S,17R)-3-hydroxy-10,13-dimethyl-2,3,4,7,8,9,10,11,12,13,14,15,16,17-tetradecahydro-1H-cyclopenta[a]phenanthren-17-yl)-N-(3-methoxypyridin-2-yl)pentanamide], for which the IC50 in assay [1] is below 250 nM. Further, in assay [2], the EC50 was above 10000 nM.
The matching figures for `C[C@H](CCC(=O)N1CCOc2cccnc21)[C@H]1CC[C@H]2[C@@H]3CC=C4C[C@@H](O)CC[C@]4(C)[C@H]3CC[C@]12C` [Example 626, (4R)-4-[(1R,3aS,3bS,7S,9aR,9bS,11aR)-7-hydroxy-9a,11a-dimethyl-1H,2H,3H,3aH,3bH,4H,6H,7H,8H,9H,9aH,9bH,10H,11H,11aH-cyclopenta[a]phenanthren-1-yl]-1-{2H,3H,4H-pyrido[3,2-b][1,4]oxazin-4-yl}pentan-1-one]: below 250 nM and 1000 to 10000 nM.
Compound `COc1ccc2ccnc(N3CCN(C(=O)CC[C@@H](C)[C@H]4CC[C@H]5[C@@H]6CC=C7C[C@@H](O)CC[C@]7(C)[C@H]6CC[C@]45C)CC3)c2c1` [Example 627, (R)-4-((3S,8S,9S,10R,13R,14S,17R)-3-hydroxy-10,13-dimethyl-2,3,4,7,8,9,10,11,12,13,14,15,16,17-tetradecahydro-1H-cyclopenta[a]phenanthren-17-yl)-1-(4-(7-methoxyisoquinolin-1-yl)piperazin-1-yl)pentan-1-one] registered an IC50 in assay [1] below 250 nM. Besides, in assay [2], the EC50 is above 10000 nM.
With `C[C@H](CCC(=O)N1CCN(c2nccc3ccncc23)CC1)[C@H]1CC[C@H]2[C@@H]3CC=C4C[C@@H](O)CC[C@]4(C)[C@H]3CC[C@]12C` [Example 628, (R)-1-(4-(2,7-naphthyridin-1-yl)piperazin-1-yl)-4-((3S,8S,9S,10R,13R,14S,17R)-3-hydroxy-10,13-dimethyl-2,3,4,7,8,9,10,11,12,13,14,15,16,17-tetradecahydro-1H-cyclopenta[a]phenanthren-17-yl)pentan-1-one], in assay [1], the IC50 was below 250 nM. The EC50 in assay [2] is above 10000 nM.
In assay [1], `COc1nnccc1N1CCN(C(=O)CC[C@@H](C)[C@H]2CC[C@H]3[C@@H]4CC=C5C[C@@H](O)CC[C@]5(C)[C@H]4CC[C@]23C)CC1` [Example 629, (R)-4-((3S,8S,9S,10R,13R,14S,17R)-3-hydroxy-10,13-dimethyl-2,3,4,7,8,9,10,11,12,13,14,15,16,17-tetradecahydro-1H-cyclopenta[a]phenanthren-17-yl)-1-(4-(3-methoxypyridazin-4-yl)piperazin-1-yl)pentan-1-one] came in with an IC50 below 250 nM. For the same compound, the EC50 in assay [2] is above 10000 nM.
On to `C[C@H](CCC(=O)N1CCN(c2ncncc2O)CC1)[C@H]1CC[C@H]2[C@@H]3CC=C4C[C@@H](O)CC[C@]4(C)[C@H]3CC[C@]12C` [Example 630, (R)-4-((3S,8S,9S,10R,13R,14S,17R)-3-hydroxy-10,13-dimethyl-2,3,4,7,8,9,10,11,12,13,14,15,16,17-tetradecahydro-1H-cyclopenta[a]phenanthren-17-yl)-1-(4-(5-hydroxypyrimidin-4-yl)piperazin-1-yl)pentan-1-one], for which, in assay [1], the IC50 was below 250 nM. Further, the EC50 in assay [2] is above 10000 nM.
Regarding `C[C@H](CCC(=O)N1CCN(c2cc(O)ncn2)CC1)[C@H]1CC[C@H]2[C@@H]3CC=C4C[C@@H](O)CC[C@]4(C)[C@H]3CC[C@]12C` [Example 631, (4R)-4-[(1R,3aS,3bS,7S,9aR,9bS,11aR)-7-hydroxy-9a,11a-dimethyl-1H,2H,3H,3aH,3bH,4H,6H,7H,8H,9H,9aH,9bH,10H,11H,11aH-cyclopenta[a]phenanthren-1-yl]-1-[4-(6-hydroxypyrimidin-4-yl)piperazin-1-yl]pentan-1-one], the IC50 in assay [1] was below 250 nM. In assay [2], the EC50 is above 10000 nM.
As for `C[C@H](CCC(=O)N1CCN(c2ncncc2N)CC1)[C@H]1CC[C@H]2[C@@H]3CC=C4C[C@@H](O)CC[C@]4(C)[C@H]3CC[C@]12C` [Example 632, (R)-1-(4-(5-aminopyrimidin-4-yl)piperazin-1-yl)-4-((3S,8S,9S,10R,13R,14S,17R)-3-hydroxy-10,13-dimethyl-2,3,4,7,8,9,10,11,12,13,14,15,16,17-tetradecahydro-1H-cyclopenta[a]phenanthren-17-yl)pentan-1-one], the IC50 in assay [1] was below 250 nM. Further, the EC50 in assay [2] is above 10000 nM.
In assay [1], `C[C@H](CCC(=O)N1CCN(c2cc(N)ncn2)CC1)[C@H]1CC[C@H]2[C@@H]3CC=C4C[C@@H](O)CC[C@]4(C)[C@H]3CC[C@]12C` [Example 633, (R)-1-(4-(6-aminopyrimidin-4-yl)piperazin-1-yl)-4-((3S,8S,9S,10R,13R,14S,17R)-3-hydroxy-10,13-dimethyl-2,3,4,7,8,9,10,11,12,13,14,15,16,17-tetradecahydro-1H-cyclopenta[a]phenanthren-17-yl)pentan-1-one] displayed an IC50 below 250 nM. Besides, the EC50 in assay [2] is above 10000 nM.

As usually defined, the IC50 is the concentration needed to halve the response being measured. Read a high IC50 as a need for much substance.

(Values after patent US20230340011A1 (Asteroid Therapeutics, priority 2022, published 2023).)
